Values quoted from earlier work as cited in patent US4758566A, “2-(1-piperazinyl)-4-substituted phenylquinoline derivatives, processes for the preparation thereof, and pharmaceutical composition containing the same” (Dainippon Pharmaceutical Co., Ltd., priority 1984, dated 1988).

How the values were obtained:
[1] = U.S. Pat. Nos. 3,542,785 and 3,668,207; cited from earlier work
[2] = U.S. Pat. Nos. 3,542,785 and 3,668,207; cited from earlier work; remark: listed apart in the source

Q: Which antiinflammatory activity [1] does the source give for `CN1CCN(c2cc(-c3ccccc3)c3cc(Cl)ccc3n2)CC1` [6-chloro-2-(4-methyl-1-piperazinyl)-4-phenylquinoline] here?
A: have antiinflammatory and diuretic activities

Q: What about the diuretic activity [2] of the same compound?
A: have antiinflammatory and diuretic activities
